Assay results reported in article PMC9253215, “A new strategy: identification of specific antibodies for neutralizing epitope on SARS-CoV-2 S protein by LC-MS/MS combined with immune repertoire” (Molecular Biomedicine, 2022).
Ends that are not written are not given here.

Columns and labels:
S1 protein = molecular target: T1, S1 protein (Severe acute respiratory syndrome coronavirus 2, UniProt P0DTC2); test: biochemical; type: binding, SARS-CoV-2
T1 construct: Purified S1 protein was first immobilized on a series S sensor chip protein A; purchased OkayBio

SARS-CoV-2 pseudovirus = type: cell-based

| Sequence | neutralizing activity against SARS-CoV-2 by IFA assay (SARS-CoV-2) | Kd (S1 protein) [µM] | neutralizing ability by pseudovirus neutralizing assay (SARS-CoV-2 pseudovirus) | neutralizing ability by authentic virus neutralization assays (SARS-CoV-2) | IC50 (SARS-CoV-2; 24 h) [µg/mL] |
| --- | --- | --- | --- | --- | --- |
| ARDVSSLYGGNSDDY [CDR3 peptide 24] | no neutralizing activity |  |  |  |  |
| VRERISYFDHWGQG [CDR3 peptide 53] | obvious neutralizing activity |  |  |  |  |
| ARDIVVPAAMGEIGGWFDP [CDR3 peptide 16] |  | 24.1 |  |  |  |
| YYCQQYDNLSGT [CDR3 peptide 44] | modestly lower neutralizing activity |  | showed neutralizing ability | showed neutralizing ability |  |
| EAWDVDNRVFGGGTR [CDR3 peptide 51] | obvious neutralizing activity |  |  |  | 1250 to 2500 |
| ARERADDYSNYCWFDP [CDR3 peptide 12] | obvious neutralizing activity |  | showed neutralizing ability | showed neutralizing ability |  |
| ARESLYDFDGSGYVDALDV [CDR3 peptide 11] |  | 0.262 |  |  |  |
| VRYSPEPAVLITEGYFD [CDR3 peptide 4] | modestly lower neutralizing activity |  | showed neutralizing ability | showed neutralizing ability |  |
| YYCQSYDSSNVV [CDR3 peptide 47] | modestly lower neutralizing activity |  | showed neutralizing ability | showed neutralizing ability |  |
| TTDRYQLLWAG [CDR3 peptide 22] | obvious neutralizing activity |  | showed neutralizing ability | showed neutralizing ability |  |
| AKDFRQYCSSTTCYDLDY [CDR3 peptide 21] | obvious neutralizing activity |  | showed neutralizing ability | showed neutralizing ability |  |
